Patent publication US11951131B2, “Anti-SLAMF7 chimeric antigen receptors” (The United States of America, as represented by the …, priority 2018, dated 2024)
Entries after “also recorded” stand apart in the source; their conditions may differ.

What was measured:
SLAMF7-K562 = experiment: IFN-gamma ELISA, CAR T cells cultured overnight with SLAMF7-K562 target cells; format: cell-based, human
Source text: (§1) MM.1S is a SLAMF7^+ multiple myeloma cell line that was obtained from American Type Culture Collection (ATCC). A549 is a BCMA-negative lung cancer cell line (ATCC). TC71 is a BCMA-negative sarcoma cell line. CCRF-CEM, 293T, and A549 are SLAMF7-negative cell lines (ATCC). COL0207, HepG2, U251, Panc10.05, and TC71 are […] that were kind gifts from Dr. Steven Rosenberg, National Cancer Institute. SLAMF7-K562 are K562 cells (ATCC) which were transduced with the gene for full-length SLAMF7. SLAMF7-RPMI are RPMI8226 cells (ATCC) which were transduced with the gene for full-length SLAMF7. NGFR-K562 are K562 cells which were transduced with the gene for low-affinity nerve growth factor (Kochenderfer et al., J. Immunother., 32(7): 689-702 (2009)). All of the human samples mentioned were obtained from patients enrolled in IRB-approved clinical trials at the National Cancer Institute.
(§2) One-hundred thousand SLAMF7^+ or SLAMF7-negative target cells were combined with 100,000 CAR-transduced T cells in duplicate wells of a 96 well round bottom plate in 200 µL of AIM V™ medium (Invitrogen) plus 5% human serum. The plates were incubated at 37° C. for 18-20 hours. Following the incubation, ELISAs (enzyme-linked immunosorbent assays) for IFNγ were performed by using standard methods.
The T cells columns indicate whether T cells were transduced with Luc90-CD828Z, Luc63-CD828Z, or were untransduced. The % CAR^+ in Table B-1 was determined by staining the T cells with Protein L. Except for the % CAR^+ column, all values are pg/mL of IFN-gamma. T cells that were either untransduced or transduced with one of the indicated CARs were cultured with target cells overnight and a standard IFN-gamma ELISA was performed on the culture supernatant.
(§3) All values are pg/mL of IFN-gamma. T cells that were either untransduced or transduced with one of the indicated CARs were cultured with target cells overnight, and a standard IFN-gamma ELISA was performed on the culture supernatant.

SLAMF7^+ MM.1S cells = experiment: Cytotoxicity assay (4 hours, relative to CCRF-CEM cells); format: cell-based, human; details: MM.1S relative to control CCRF-CEM cells (FIG. 8A)
Method: Cytotoxicity assays were conducted as previously described (see Kochenderfer et al., J. Immunother., 32(7): 689-702 (2009)). Cytotoxicity was measured by comparing survival of SLAMF7^+ target cells relative to the survival of negative-control CCRF-CEM cells. Both of these cell types were combined in the same tubes with CAR-transduced T cells. CCRF-CEM negative control cells were labeled with the fluorescent dye 5-(and -6)-(((4-chloromethyl)benzoyl)amino) tetramethylrhodamine (CMTMR) (Invitrogen), and SLAMF7^+ target cells were labeled with CFSE. Cocultures were set up in sterile 5 mL test tubes (BD Biosciences) in duplicate at multiple T cell to target cell ratios. The target cells contained in the tubes were 50,000 SLAMF7^+ target cells along with 50,000 CCRF-CEM negative-control cells. The cultures were incubated for 4 hours at 37° C. Immediately after the incubation, 7AAD (7-amino-actinomycin D) (BD Biosciences) was added, and flow cytometry acquisition was performed. For each T cell plus target-cell culture, the percent survival of SLAMF7^+ target cells was determined by dividing the percent live SLAMF7^+ cells by the percent live CCRF-CEM negative control cells. The corrected percent survival of SLAMF7^+ target cells was calculated by dividing the percent survival of SLAMF7^+ target cells in each T cell plus target cell culture by the ratio of the percent live SLAMF7^+ target cells to percent live CCRF-CEM negative-control cells in tubes containing only SLAMF7^+ target cells and CCRF-CEM cells without effector T cells. This correction was necessary to account for variation in the starting cell numbers and for spontaneous target cell death. Cytotoxicity was calculated as follows: the percent cytotoxicity of […] target cells=100−corrected percent survival of SLAMF7^+ target cells.

[1] = Signs of CAR T-cell-mediated toxicity in mice; format: in vivo; details: mice after CAR T-cell infusion
Method: First, MM.1S human SLAMF7^+ multiple myeloma cell line tumors were established in immunodeficient mice. In this model, the MM.1S cells formed a solid cutaneous mass. Measurable tumors were allowed to develop over 7 days, and then the mice were treated with a single intravenous infusion of MSGV1-IC9-Luc90-CD828Z-transduced human T cells. NSG mice (NOD.Cg-Prkdc^scid Il2rg^tm1Wjl/SzJ) from The Jackson Laboratory, Bar Harbor, Me., were used. Mice received intradermal injections of 4×10^6 MM.1S cells. The cells were suspended in a 1:1 mixture of MATRIGEL™ gelatinous protein mixture (BD Biosciences) and PBS (Phosphate-buffered saline) for injection. Tumors were allowed to grow for 7 days, and then each mouse received a single intravenous infusion of human T cells that were transduced with one of 3 CARs: IC9-Luc90-CD828Z (suicide gene+anti-SLAMF7 CAR), Luc90-CD828Z (anti-SLAMF7 CAR alone), or a negative-control anti-CD19 CAR Hu19-CD828Z. A 4th group was left untreated. All groups included 5 mice. After CAR T-cell infusion, the tumors were measured with calipers every 3 days. The longest length and the length perpendicular to the longest length and the tumor thickness were multiplied together to obtain the tumor volume in mm^3. When the longest length reached 15 mm, mice were sacrificed. Animal studies were approved by the National Cancer Institute Animal Care and Use Committee. […]

CCRF-CEM = experiment: IFN-gamma ELISA, CAR T cells with CCRF-CEM target cells; format: cell-based, human
Source text: as §1, §2, §3

Substance	IFN-gamma, SLAMF7-K562 (SLAMF7-K562; Table E, overnight culture) [pg/mL]	killing of SLAMF7^+ target cells (SLAMF7^+ MM.1S cells)	signs of CAR T-cell-mediated toxicity [1]	IFN-gamma, CCRF-CEM (CCRF-CEM; Table E) [pg/mL]	IFN-gamma, target cells SLAMF7-K562 (SLAMF7-K562; Table B-1, overnight culture) [pg/mL]	IFN-gamma, target cells SLAMF7-K562 (SLAMF7-K562; Table B-2, overnight culture) [pg/mL]	IFN-gamma, target cells SLAMF7-K562 (SLAMF7-K562; Table C) [pg/mL]	IFN-gamma, target cells CCRF-CEM (CCRF-CEM; Table C) [pg/mL]
IC9-Luc90-CD828Z: CAR plus suicide gene construct (SEQ ID NO: 31): IC9 suicide gene 5′ to the CAR, T2A, Luc90-CD828Z	2225	killed SLAMF7^+ target cells; also recorded: specifically killed the SLAMF7^+ MM.1S cells	did not exhibit any signs of CAR T-cell-mediated toxicity; also recorded: did not exhibit ruffled fur or decreased activity; also recorded: no toxicity	33				
Luc90-CD828Z: anti-SLAMF7 CAR (SEQ ID NO: 27): murine Luc90 scFv, human CD8a hinge and TM, CD28 and CD3ζ domains; tested as transduced T cells		killed SLAMF7^+ target cells	did not exhibit ruffled fur or decreased activity		16579	20055	15759	16
